Results published in US20240158348A1, “HERBICIDAL CYCLIC AMIDES N-SUBSTITUTED WITH A HALOALKYLSULFONYLANILIDE GROUP” (FMC Corporation, priority 2021, published 2024).

What was measured:
Format in all cases: in vivo
soybean (Glycine max) = test: Test C postemergence, soybean; details: for Soybean plant response rating: visual injury, 0 to 100 scale (0 no effect, 100 complete control)
[1] = system: ducksalad (Heteranthera limosa); test: Test D flooded paddy test, ducksalad; set-up: key: 0 = no effect, 100 = complete control; details: 250 g ai/ha, Flood; applied to paddy water at 2-leaf stage; visual rating after 13 days; scale 0 (no effect) to 100 (complete control)
In short: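 Plants were grown to the 2-leaf stage, then pots were flooded to 3 cm above soil and compounds applied directly into the paddy water, with that depth held throughout. After 13 days in a greenhouse, injury was visually rated against untreated controls on a 0–100 scale (0 no effect, 100 complete control).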

[2] = system: blackgrass (Alopecurus myosuroides); test: Test C postemergence, blackgrass; details: 31 g ai/ha Postemergence; visual injury, 0 to 100 scale (0 no effect, 100 complete control)
In short: (§1)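 Plants grown in a sand and loam soil blend received the formulated test chemicals either as a preemergence soil-directed spray or postemergence at 2 to 10 cm height. After 10 or 12 greenhouse days, injury was assessed visually, with 100 meaning complete control.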

[3] = system: pigweed, palmer (palmer amaranth, Amaranthus palmeri); test: Test C postemergence, palmer amaranth; details: for Pigweed, Palmer plant response rating: visual injury, 0 to 100 scale (0 no effect, 100 complete control)
In short: as §1

[4] = system: goosegrass (Eleusine indica); test: Test C preemergence, goosegrass; details: 0 is no effect, 100 is complete control
In short: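 Herbicidal effect was estimated visually on a 0–100 scale 10 or 12 days after spraying. Formulation: non-phytotoxic solvent mixture with surfactant. Timing: directed soil spray after sowing, or postemergence on seedlings bearing one or two leaves.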

[5] = system: galium (catchweed bedstraw, Galium aparine); test: Test C postemergence, galium; details: for Galium plant response rating: 31 g ai/ha Postemergence, visual injury, 0 to 100 scale (0 no effect, 100 complete control); for Plant response rating (0 to 100 scale), Galium: 125 g ai/ha Postemergence, 0 is no effect, 100 is complete control
[6] = system: oat, wild (wild oat, Avena fatua); test: Test C postemergence, wild oat; details: for Oat, Wild plant response rating: 31 g ai/ha Postemergence, visual injury, 0 to 100 scale (0 no effect, 100 complete control); for Plant response rating (0 to 100 scale), Oat, Wild: 125 g ai/ha Postemergence, 0 is no effect, 100 is complete control
[7] = system: foxtail, giant (giant foxtail, Setaria faberi); test: Test C postemergence, giant foxtail; details: for Foxtail, Giant plant response rating: 31 g ai/ha Postemergence, visual injury, 0 to 100 scale (0 no effect, 100 complete control); for Plant response rating (0 to 100 scale), Foxtail, Giant: 125 g ai/ha Postemergence, 0 is no effect, 100 is complete control
[8] = 125 g ai/ha Postemergence, 0 is no effect, 100 is complete control

Row | Compound | Soybean plant response rating (soybean (Glycine max); 31 g ai/ha Postemergence) | Soybean plant response rating (soybean (Glycine max); 125 g ai/ha Postemergence) | Plant response rating, Ducksalad [1] | Blackgrass plant response rating [2] | Pigweed, Palmer plant response rating ([3]; 31 g ai/ha Postemergence) | Pigweed, Palmer plant response rating ([3]; 125 g ai/ha Postemergence) | Plant response rating (0 to 100 scale), Goosegrass ([4]; 31 g ai/ha Preemergence) | Plant response rating (0 to 100 scale), Goosegrass ([4]; 125 g ai/ha Preemergence) | Galium plant response rating [5] | Plant response rating (0 to 100 scale), Galium [5] | Oat, Wild plant response rating [6] | Plant response rating (0 to 100 scale), Oat, Wild [6] | Foxtail, Giant plant response rating [7] | Plant response rating (0 to 100 scale), Foxtail, Giant [7] | Plant response rating (0 to 100 scale), Soybean (soybean (Glycine max); [8]) | Plant response rating (0 to 100 scale), Pigweed, Palmer [3, 8]
1 | Cc1cc(Cl)c(N(COC(=O)C(C)(C)C)S(=O)(=O)C(F)(F)F)cc1N1CCC(OC2CC2)C1=O (centres unmarked) [Compound 33] | 80 | 100 | 80 | 0 | 20 | 80 | 90 | 100 | 100 | 100 | 30 | 70 | 50 | 90 | – | –
2 | Cc1cc(C)c(N2CCC(OC3COC3)C2=O)cc1NS(=O)(=O)C(F)(F)F (centres unmarked) [Compound 34] | 60 | 70 | 65 | 30 | 70 | 100 | 30 | 100 | 100 | 100 | 30 | 70 | 40 | 90 | – | –
3 | Cc1cc(C)c(N(C(=O)OC(C)C)S(=O)(=O)C(F)(F)F)cc1N1CCC(OC2CC2)C1=O (centres unmarked) [Compound 18] | 50 | – | 0 | 0 | 0 | – | 0 | 0 | 10 | 70 | 0 | 0 | 0 | 0 | 80 | 20
4 | Cc1c(NS(=O)(=O)C(F)(F)F)cc(N2CCCC(OC3CC3)C2=O)c(C)c1F (centres unmarked) [Compound 35] | 60 | 60 | 55 | 50 | 40 | 70 | 100 | 100 | 70 | 100 | 40 | 70 | 40 | 90 | – | –
5 | Cc1c(N2CCCC(OC3CCC3)C2=O)cc(N(COC(=O)C(C)(C)C)S(=O)(=O)C(F)(F)F)c(C)c1F (centres unmarked) [Compound 39] | 50 | 90 | 55 | 0 | 0 | 20 | 10 | 60 | 80 | 90 | 0 | 20 | 0 | 10 | – | –
6 | Cc1c(NS(=O)(=O)C(F)(F)F)cc(N2CCCC(OC3CCC3)C2=O)c(C)c1F (centres unmarked) [Compound 36] | 70 | 70 | 65 | 20 | 30 | 70 | 90 | 100 | 60 | 80 | 30 | 30 | 10 | 30 | – | –
7 | COC(=O)N(c1cc(N2CCC(OC3CC3)C2=O)c(C)cc1Cl)S(=O)(=O)C(F)(F)F (centres unmarked) [Compound 40] | 70 | 80 | 70 | 10 | 30 | 90 | 100 | 100 | 80 | 100 | 50 | 80 | 50 | 90 | – | –
